Laboratory results taken from patent publication US9839642B2, “Beta-tetrazolyl-propionic acids as metallo-beta-lactamase inhibitors” (priority 2014, dated 2017).
Where two headings read alike, the source gives them in different places.

Assays:
[1] = system: Serratia marcescens expressing IMP-1 (CL5741); assay: Antibiotic potentiation activity: synergistic concentration (MITC95) with imipenem, growth by OD600; assay type: cell-based; details: 95% inhibition of bacterial growth, strain CL5741
Method in brief: (§1)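 MITC95 = lowest inhibitor concentration giving 95% growth inhibition, read by absorbance after 22–24 h at 35° C. Compound range 200 μM to 0.195 μM, imipenem fixed at 1 or 4 μg/ml, bacteria in 1.1×CAMHB from saline suspension diluted 1:100.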

[2] = system: Klebsiella pneumoniae expressing VIM-1 (IHMA599644); assay: as above; assay type: cell-based; details: 95% inhibition of bacterial growth, strain IHMA599644
Method in brief: as §1

[3] = system: Escherichia coli expressing NDM-1 (CLB30005); assay: as above; assay type: cell-based; details: 95% inhibition of bacterial growth, strain CLB30005
Method in brief: as §1

VIM-1 = VIM-1 (Pseudomonas aeruginosa, UniProt A0A0F7KYQ8); assay: Enzyme activity: determination of IC50, fluorescence assay with CCF2-FA substrate; assay type: biochemical; details: CCF2-FA 1.25 μM, 2 hours at 25° C.
Method in brief: (§2)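 100 mM KH2PO4 pH 7 + 0.005% Tween-20 + 10 μM ZnSO4; CCF2-FA 1.25 μM; NDM-1 1 pM, IMP-1 2 pM, VIM-1 30 pM; cpd 20–0.00063 μM final, DMSO 1:50. 2 h, 25° C. Ex 405/em 460 nm; IC50, 4-param fit.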

NDM-1 = NDM-1 (Klebsiella pneumoniae, UniProt C7C422); assay: as above; assay type: biochemical; details: CCF2-FA 1.25 μM, 2 hours at 25° C.
Method in brief: as §2

IMP-1 = IMP-1 (Serratia marcescens, UniProt P52699); assay: as above; assay type: biochemical; details: CCF2-FA 1.25 μM, 2 hours at 25° C.
Method in brief: as §2

[4] = enzyme 30 pM, read-out: VIM1 IC50
[5] = enzyme 1 pM, read-out: NDM1 IC50
[6] = enzyme 2 pM, read-out: IMP1 IC50

Sequence of NDM-1 (C7C422 29-270, looked up, species assumed): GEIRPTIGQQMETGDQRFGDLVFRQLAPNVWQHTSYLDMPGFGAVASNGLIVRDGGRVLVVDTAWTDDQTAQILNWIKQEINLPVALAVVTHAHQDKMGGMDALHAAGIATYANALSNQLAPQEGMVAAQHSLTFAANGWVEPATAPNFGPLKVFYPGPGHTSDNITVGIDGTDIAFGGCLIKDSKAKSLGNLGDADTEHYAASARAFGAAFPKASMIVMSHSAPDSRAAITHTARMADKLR
Sequence of IMP-1 (P52699 19-246, looked up, species assumed): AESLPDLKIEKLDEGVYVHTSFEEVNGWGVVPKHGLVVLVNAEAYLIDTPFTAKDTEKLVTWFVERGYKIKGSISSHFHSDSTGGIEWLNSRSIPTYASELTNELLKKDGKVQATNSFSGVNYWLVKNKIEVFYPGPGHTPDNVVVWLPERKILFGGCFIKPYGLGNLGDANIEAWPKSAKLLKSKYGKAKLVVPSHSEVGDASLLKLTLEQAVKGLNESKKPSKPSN

Structure (SMILES)	IMP1 SM5741 MITC95 [1] [µM]	VIM1 KP599644 MITC95 [2] [µM]	NDM1 EC30005 MITC95 [3] [µM]	IC50 (VIM-1; [4]) [nM]	IC50 (NDM-1; [5]) [nM]	IC50 (IMP-1; [6]) [nM]	IC50 (VIM-1; VIM1 IC50, enzyme 30 pM) [nM]	IC50 (NDM-1; NDM1 IC50, enzyme 1 pM) [nM]	IC50 (IMP-1; IMP1 IC50, enzyme 2 pM) [nM]
O=C(O)[C@@H](CCCC(F)(F)F)[C@H](Cc1ccccc1)c1nnn[nH]1 [Example 6, (S)-6,6,6-trifluoro-2-((S)-2-phenyl-1-(1H-tetrazol-5-yl)ethyl)hexanoic acid]	106.3	>200	75	130	240	730			
CC(C)C[C@H](C(=O)O)[C@H](Cc1ccccc1)c1nnn[nH]1 [Example 7, (2S)-4-methyl-2-[(2S)-2-phenyl-1-(1H-tetrazol-5-yl)ethyl]pentanoic acid]	62.5	37.5	18.8	3.3	19	52			
CC[C@H](C(=O)O)[C@H](Cc1ccccc1)c1nnn[nH]1 [Example 8, (2S,3S)-2-ethyl-4-phenyl-3-(1H-tetrazol-5-yl)butanoic acid]	125	62.5	9.4	21	81	1800			
COCCC[C@H](C(=O)O)[C@H](Cc1ccccc1)c1nnn[nH]1 [Example 9, (2S)-5-methoxy-2-[(1S)-2-phenyl-1-(1H-tetrazol-5-yl)ethyl]pentanoic acid]	25	200	31	63	97	850			
O=C(O)[C@@H](CC1CCCC1)[C@H](Cc1ccccc1)c1nnn[nH]1 [Example 10, (2S,3S)-2-(cyclopentylmethyl)-4-phenyl-3-(1H-tetrazol-5-yl)butanoic acid]	7.0	150	50	29	47	48			
O=C(O)[C@@H](CCC1CCCCC1)[C@H](Cc1ccccc1)c1nnn[nH]1 [Example 11, (2S,3S)-2-(2-cyclohexylethyl)-4-phenyl-3-(1H-tetrazol-5-yl)butanoic acid]	27	>200	25	34	57	230			
O=C(O)[C@@H](C1CCOCC1)[C@H](Cc1ccccc1)c1nnn[nH]1 [Example 12, (2S,3S)-4-phenyl-2-(tetrahydro-2H-pyran-4-yl)-3-(1H-tetrazol-5-yl)butanoic acid]	200	200	12.5	84.7	99	1050			
O=C(O)[C@@H](CC1CC1)[C@H](Cc1ccccc1)c1nnn[nH]1 [Example 13, (2S,3S)-2-(cyclopropylmethyl)-4-phenyl-3-(1H-tetrazol-5-yl)butanoic acid]	150	50	12.5	16	128	460			
CC(C)=CCC[C@@H](C(=O)O)[C@H](Cc1ccccc1)c1nnn[nH]1 [Example 14, (2R)-6-methyl-2-[(1S)-2-phenyl-1-(1H-tetrazol-5-yl)ethyl]hept-5-enoic acid]	200	100	15.6	37	150	1600			
O=C(O)[C@@H](C1CCCC1)[C@H](Cc1ccccc1)c1nnn[nH]1 [Example 17, (2S,3S)-2-cyclopentyl-4-phenyl-3-(1H-tetrazol-5-yl)butanoic acid]	37.5	37.5	18.8	3.7	16	110			
CCCC(C)[C@H](C(=O)O)[C@H](Cc1ccccc1)c1nnn[nH]1 (stereo partly drawn) [Example 18, (2S)-3-methyl-2-((S)-2-phenyl-1-(1H-tetrazol-5-yl)ethyl)hexanoic acid]	37.5	200	18.8	36	26	30			
CCC(C)[C@H](C(=O)O)[C@H](Cc1ccccc1)c1nnn[nH]1 (stereo partly drawn) [Example 19, (2S)-3-methyl-2-((S)-2-phenyl-1-(1H-tetrazol-5-yl)ethyl)pentanoic acid]	50	50	9.4	24	31	62			
CC(C)[C@H](C(=O)O)[C@H](Cc1ccccc1)c1nnn[nH]1 [Example 20, (2S,3S)-2-isopropyl-4-phenyl-3-(1H-tetrazol-5-yl)butanoic acid]	128	69	4.7	22	26	390			
O=C(O)[C@@H](CCF)[C@H](Cc1ccccc1)c1nnn[nH]1 [Example 21, (2S,3S)-2-(2-fluoroethyl)-4-phenyl-3-(1H-tetrazol-5-yl)butanoic acid]	>200	>200	75	15	190	2700			
O=C(O)[C@@H](CC(F)F)[C@H](Cc1ccccc1)c1nnn[nH]1 [Example 22, (2S,3S)-2-(2,2-difluoroethyl)-4-phenyl-3-(1H-tetrazol-5-yl)butanoic acid]	200	50	31	14	280	2600			
CC(C)C[C@H](C(=O)O)[C@@H](c1nnn[nH]1)[C@H](C)c1ccccc1 [Example 27, (2S,3S,4S)-2-isobutyl-4-phenyl-3-(1H-tetrazol-5-yl)pentanoic acid]	13	37.5	15.6	7.7	16	62			
C[C@@H](c1ccccc1)[C@H](c1nnn[nH]1)[C@H](CCF)C(=O)O [Example 28, (2S,3S,4R)-2-(2-fluoroethyl)-4-phenyl-3-(1H-tetrazol-5-yl)pentanoic acid]	>200	>200	200	190	310	1800			
CC[C@H](C(=O)O)[C@@H](c1nnn[nH]1)[C@@H](C)c1ccccc1 [Example 29, (2S,3S,4R)-2-ethyl-4-phenyl-3-(1H-tetrazol-5-yl)pentanoic acid]	>200	200	25	210	530	2300			
CCCC[C@@H](C(=O)O)[C@@H](Cc1ccc(Br)cc1)c1nnn[nH]1 [Example 30, (R)-2-((R)-2-(4-bromophenyl)-1-(1H-tetrazol-5-yl)ethyl)hexanoic acid]	50	>200	>200				240	4700	220
O=C(O)[C@H](CCC1CCCCC1)[C@@H](Cc1ccccc1)c1nnn[nH]1 [Example 31, (2R,3R)-2-(2-cyclohexylethyl)-4-phenyl-3-(1H-tetrazol-5-yl)butanoic acid]	>200	>200	>200	590	740	410			
O=C(O)[C@@H](CCCCO)[C@H](Cc1ccccc1)c1nnn[nH]1 [Example 32, (S)-6-hydroxy-2-((S)-2-phenyl-1-(1H-tetrazol-5-yl)ethyl)hexanoic acid]	>200	200	75	240	720	5000			
N#CCCCC[C@H](C(=O)O)[C@H](Cc1ccccc1)c1nnn[nH]1 [Example 33, (S)-6-cyano-2-((S)-2-phenyl-1-(1H-tetrazol-5-yl)ethyl)hexanoic acid]	50	>200	75	110	390	2100			
O=C(O)CCCC[C@H](C(=O)O)[C@H](Cc1ccccc1)c1nnn[nH]1 [Example 34, (S)-2-((S)-2-phenyl-1-(1H-tetrazol-5-yl)ethyl)heptanedioic acid]	200	200	25	40	200	1500			
